Test results published in ChEMBL document CHEMBL6109102, “Conjugation with the XJB peptide enhanced neuroprotective effect of honokiol via SIRT3 modulation” (Eur J Med Chem, 2025).
The source made the active and inactive calls. The calls are words filed in the database; no cut-off is given here.

How the values were obtained:
SH-SY5Y = experiment: Cytotoxicity against human SH-SY5Y cells assessed as inhibition of cell viability at 100 uM incubated for 24 hrs by MTT assay; assay type: functional, cell-based
PC-12 [1] = experiment: Cytoprotective activity against H2O2-induced cell injury in rat PC12 cells assessed as cell viability at 10 uM incubated for 24 hrs by MTT assay; assay type: functional, cell-based
PC-12 [2] = experiment: Cytoprotective activity against H2O2-induced cell injury in rat PC12 cells assessed as cell viability at 20 uM incubated for 24 hrs by MTT assay; assay type: functional, cell-based
[3] = Drug uptake in mitochondria of rat PC12 cells at 8 uM incubated for 8.5 hrs by HPLC analysis; assay type: ADME; details: pc12, 8.5 h
PC-12 [4] = experiment: Inhibition of apoptosis in H2O2-induced rat PC12 cells assessed as viable cells at 1.25 uM incubated with compound for 24 hrs followed by H2O2 addition and measured after 24 hrs by Annexin V-FITC/PI staining based flow cytometry analysis (reference value: 91.4%); assay type: functional; details: read-out: Activity
PC-12 [5] = experiment: Inhibition of apoptosis in H2O2-induced rat PC12 cells assessed as early apoptotic cells at 1.25 uM incubated with compound for 24 hrs followed by H2O2 addition and measured after 24 hrs by Annexin V-FITC/PI staining based flow cytometry analysis (reference value: 1.09%); assay type: functional; set-up: scale not given: the % may be the effect or the level left
PC-12 [6] = experiment: Inhibition of apoptosis in H2O2-induced rat PC12 cells assessed as late apoptotic cells at 1.25 uM incubated with compound for 24 hrs followed by H2O2 addition and measured after 24 hrs by Annexin V-FITC/PI staining based flow cytometry analysis (reference value: 2.64%); assay type: functional; set-up: scale not given: the % may be the effect or the level left
PC-12 [7] = experiment: Inhibition of apoptosis in H2O2-induced rat PC12 cells assessed as necrotic cells at 1.25 uM incubated with compound for 24 hrs followed by H2O2 addition and measured after 24 hrs by Annexin V-FITC/PI staining based flow cytometry analysis (reference value: 4.05%); assay type: functional; set-up: scale not given: the % may be the effect or the level left
PC-12 [8] = experiment: Inhibition of apoptosis in H2O2-induced rat PC12 cells assessed as viable cells at 2.5 uM incubated with compound for 24 hrs followed by H2O2 addition and measured after 24 hrs by Annexin V-FITC/PI staining based flow cytometry analysis (reference value: 91.4%); assay type: functional; details: read-out: Activity
PC-12 [9] = experiment: Inhibition of apoptosis in H2O2-induced rat PC12 cells assessed as early apoptotic cells at 2.5 uM incubated with compound for 24 hrs followed by H2O2 addition and measured after 24 hrs by Annexin V-FITC/PI staining based flow cytometry analysis (reference value: 1.09%); assay type: functional; set-up: scale not given: the % may be the effect or the level left
PC-12 [10] = experiment: Inhibition of apoptosis in H2O2-induced rat PC12 cells assessed as late apoptotic cells at 2.5 uM incubated with compound for 24 hrs followed by H2O2 addition and measured after 24 hrs by Annexin V-FITC/PI staining based flow cytometry analysis (reference value: 2.64%); assay type: functional; set-up: scale not given: the % may be the effect or the level left
PC-12 [11] = experiment: Inhibition of apoptosis in H2O2-induced rat PC12 cells assessed as necrotic cells at 2.5 uM incubated with compound for 24 hrs followed by H2O2 addition and measured after 24 hrs by Annexin V-FITC/PI staining based flow cytometry analysis (reference value: 4.05%); assay type: functional; set-up: scale not given: the % may be the effect or the level left
PC-12 [12] = experiment: Inhibition of apoptosis in H2O2-induced rat PC12 cells assessed as viable cells at 5 uM incubated with compound for 24 hrs followed by H2O2 addition and measured after 24 hrs by Annexin V-FITC/PI staining based flow cytometry analysis (reference value: 91.4%); assay type: functional; details: read-out: Activity
PC-12 [13] = experiment: Inhibition of apoptosis in H2O2-induced rat PC12 cells assessed as early apoptotic cells at 5 uM incubated with compound for 24 hrs followed by H2O2 addition and measured after 24 hrs by Annexin V-FITC/PI staining based flow cytometry analysis (reference value: 1.09%); assay type: functional; set-up: scale not given: the % may be the effect or the level left
PC-12 [14] = experiment: Inhibition of apoptosis in H2O2-induced rat PC12 cells assessed as late apoptotic cells at 5 uM incubated with compound for 24 hrs followed by H2O2 addition and measured after 24 hrs by Annexin V-FITC/PI staining based flow cytometry analysis (reference value: 2.64%); assay type: functional; set-up: scale not given: the % may be the effect or the level left
PC-12 [15] = experiment: Inhibition of apoptosis in H2O2-induced rat PC12 cells assessed as necrotic cells at 5 uM incubated with compound for 24 hrs followed by H2O2 addition and measured after 24 hrs by Annexin V-FITC/PI staining based flow cytometry analysis (reference value: 4.05%); assay type: functional; set-up: scale not given: the % may be the effect or the level left
PC-12 [16] = experiment: Anti-apoptotic activity in H2O2-induced rat PC12 cells assessed as increase in PARP protein expression at 1.25 to 5 uM by Western blot analysis; assay type: functional, cell-based; details: dose 1.25-5 µM
PC-12 [17] = experiment: (§1) Neuroprotective activity in H2O2-induced rat PC12 cells assessed as reversal of mitochondrial membrane potential reduction by measuring red fluorescence at 1.25 uM incubated with compound for 24 hrs followed by H2O2 addition and measured after 24 hrs by JC-1 based fluorescence microscopic analysis (reference value: 21.62 a.u.); assay type: functional
PC-12 [18] = experiment: as §1, with “2.5” for “1.25”; assay type: functional
PC-12 [19] = experiment: as §1, with “5” for “1.25”; assay type: functional
PC-12 [20] = experiment: as §1, with “measuring green” for “measuring red”, “at 1.5” for “at 1.25”, “value: 4.90” for “value: 21.62”; assay type: functional
PC-12 [21] = experiment: as §1, with “measuring green” for “measuring red”, “at 2.5” for “at 1.25”, “value: 4.90” for “value: 21.62”; assay type: functional
PC-12 [22] = experiment: as §1, with “measuring green” for “measuring red”, “at 5” for “at 1.25”, “value: 4.90” for “value: 21.62”; assay type: functional
PC-12 [23] = experiment: (§2) Neuroprotective activity in H2O2-induced rat PC12 cells assessed as reversal of mitochondrial membrane potential reduction by measuring red fluorescence fold change at 1.5 uM incubated with compound for 24 hrs followed by H2O2 addition and measured after 24 hrs by JC-1 based fluorescence microscopic analysis (reference value: 1.00); assay type: functional
PC-12 [24] = experiment: as §2, with “2.5” for “1.5”; assay type: functional
PC-12 [25] = experiment: as §2, with “5” for “1.5”; assay type: functional
PC-12 [26] = experiment: as §2, with “measuring green” for “measuring red”; assay type: functional
PC-12 [27] = experiment: as §2, with “measuring green” for “measuring red”, “at 2.5” for “at 1.5”; assay type: functional
PC-12 [28] = experiment: as §2, with “measuring green” for “measuring red”, “at 5” for “at 1.5”; assay type: functional
PC-12 [29] = experiment: Induction of autophagy in H2O2-induced rat PC12 cells assessed as downregulation of P62 expression by Western blot analysis; assay type: functional, cell-based; details: dose 1.25-5 µM
PC-12 [30] = experiment: Induction of autophagy in H2O2-induced rat PC12 cells assessed as upregulation of LC3-II/I ratio by Western blot analysis; assay type: functional, cell-based; details: dose 1.25-5 µM
Danio rerio = experiment: Anti-alzheimer activity in scopolamine induced zebrafish alzheimer disease model assessed as increase in total swimming distance at 1.25 to 5 uM administered for 6 days post fertilization; assay type: functional, organism-based; details: dose 1.25-5 µM, time 6.0 day
[31] = Drug uptake in cytoplasm of rat PC12 cells at 8 uM incubated for 8.5 hrs by HPLC analysis; assay type: ADME, subcellular; details: pc12, 8.5 h
[32] = Drug uptake in rat PC12 cells at 8 uM incubated for 8.5 hrs by HPLC analysis; assay type: ADME, cell-based; details: pc-12, 8.5 h
PC-12 [33] = experiment: Cytotoxicity against rat PC12 cells assessed as inhibition of cell viability at 30 uM incubated for 24 hrs by MTT assay; assay type: functional, cell-based

For C=CCc1ccc(O)c(-c2ccc(O)c(CC=C)c2)c1 [HONOKIOL], the Activity (SH-SY5Y) was “Active”, the Activity (PC-12 [1]) was “Active” and the Activity (PC-12 [2]) was “inactive”. For the same compound, the Drug uptake [3] was “Active”, the viability at 1.25 µM (PC-12 [4]) was 76.9% and the Activity (PC-12 [5]) was 16.6%. For the same compound, the Activity (PC-12 [6]) was 4.95%, the Activity (PC-12 [7]) was 1.57% and the viability at 2.5 µM (PC-12 [8]) was 79.6%. It also gave an Activity (PC-12 [9]) of 15.6%, an Activity (PC-12 [10]) of 3.27% and an Activity (PC-12 [11]) of 1.43%. For the same compound, the viability at 5 µM (PC-12 [12]) was 77.1%, the Activity (PC-12 [13]) was 16.5% and the Activity (PC-12 [14]) was 4.84%. The Activity (PC-12 [15]) was 1.52%, the Activity (PC-12 [16]) was “Active” and the Activity (PC-12 [17]) was 2.16 a.u. The Activity (PC-12 [18]) was 6.59 a.u, the Activity (PC-12 [19]) was 13.31 a.u and the Activity (PC-12 [20]) was 6.32 a.u. For the same compound, the Activity (PC-12 [21]) was 4.08 a.u, the Activity (PC-12 [22]) was 3.97 a.u and the “fold change (FC)” value (PC-12 [23]) was 0.09. The “fold change (FC)” value (PC-12 [24]) was 0.32, the “fold change (FC)” value (PC-12 [25]) was 0.63 and the “fold change (FC)” value (PC-12 [26]) was 2.55. The “fold change (FC)” value (PC-12 [27]) was 1.02, the “fold change (FC)” value (PC-12 [28]) was 1.26 and the Activity (PC-12 [29]) was “inactive”. The Activity (PC-12 [30]) was “inactive”, the Activity (Danio rerio) was “Active” and the Drug uptake [31] was “Active”. For the same compound, the Drug uptake [32] was “Active”.
In the case of C=CCc1ccc(OCCCNC(=O)[C@H](CCCNC(=O)OCc2ccccc2)NC(=O)[C@@H](NC(=O)[C@@H]2CCCN2C(=O)[C@@H](Cc2ccccc2)NC(=O)[C@H](CC(C)C)NC(=O)OC(C)(C)C)C(C)C)c(-c2ccc(OC)c(CC=C)c2)c1, the Activity (PC-12 [33]) was “inactive”.
With CC(C)C[C@H](NC(=O)OC(C)(C)C)C(=O)N[C@H](Cc1ccccc1)C(=O)N1CCC[C@H]1C(=O)N[C@H](C(=O)N[C@@H](CCCNC(=O)OCc1ccccc1)C(=O)O)C(C)C the Activity (SH-SY5Y) was “inactive” and the Activity (PC-12 [33]) was “Active”.
